Consider nine compounds from patent US20250136576A1, “Heterocyclic Compounds and Uses Thereof” (ACEA Therapeutics, Inc., priority 2021, published 2025).

Holding throughout (format): cell-based
The subject of experiment [1] is H1975 cells. In words: Cell proliferation and growth inhibition assay (CCK-8) in H1975. As to conditions: Homo sapiens, NCI-H1975, 72 h, treated with test compounds for 72 hrs, CCK-8 viability, read-out: EGFR IC50 in H1975. In outline: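 Cells seeded at 30,000 (MV-4-11, IMDM) or 3,000 (H1975, RPMI 1640) per well, left 24 h, then compound-treated 72 h at 37 °C, 5% CO2, 10% FBS. Viability read by CCK-8 (1–4 h) at OD450. IC50 from sigmoidal dose-response nonlinear regression.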

Experiment [2] deals with KM12-luc cells. In words: Cell proliferation and growth inhibition assay (CCK-8) in KM12-luc. As to conditions: KM12-Luc, 72 h, KM12-luc cells, treated with test compounds for 72 hrs, CCK-8 viability; read-out: NTRK IC50 in KM12-luc. In outline:
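IC50 values were fitted by sigmoidal dose-response non-linear regression of CCK-8 OD450 absorbance after 1-4 hrs with reagent. Culture media were IMDM for MV-4-11, RPMI 1640 for H1975 and DMEM for KM12-luc, each with 10% FBS at 37 °C, 5% CO2.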

In experiment [3] the test system is MV-4-11 (AML) cells. In words: Cell proliferation and growth inhibition assay (CCK-8) in MV-4-11. As to conditions: Homo sapiens, MV4-11; MV-4-11 cells, treated with test compounds for 72 hrs, CCK-8 viability. As for the experimental part:
MV-4-11 and H1975 cells were obtained from the American Type Culture Collection and KM12-luc cells were obtained from JCRB Cell Bank. All cell lines were maintained at 37° C. with 5% C02, in media supplemented with 10% fetal bovine serum and penicillin (100 units/mL) and streptomycin (100 μg/mL). MV-4-11 cells were maintained in Iscove's Modified Dubecco's Medium, H1975 cells were cultured with RPMI 1640 media, and KM12-luc cells were maintained in Dulbecco's Modification of Eagle's Medium. CCK-8 reagent was obtained from Yeasen.
Cell proliferation was assessed by CCK-8 assay (Yeasen) per the manufacturer's instructions. The MV-4-11 (AML), H1975, and KM12-luc cells were seeded at 30,000, 3,000 and 2,500 cells per well onto 96-well plates, and after a 24 h incubation, the cells were treated with test compounds for 72 hrs. Cell viability was assayed by incubating the cells with CCK-8 reagent for 1-4 hrs. Absorbance was measured at OD450 using the Beckman DTX880. The data was calculated using GraphPad Prism version 6.01. The IC50 values were fitted using a non-linear regression model with a sigmoidal dose response.

On to `COc1cccc2c(-c3nc(Nc4ccc(OCCN(C)C)c(NC(C)=O)c4)ncc3C(F)(F)F)c[nH]c12` [Compound 381, N-(2-(2-(dimethylamino)ethoxy)-5-((4-(7-methoxy-1H-indol-3-yl)-5-(trifluoromethyl)pyrimidin-2-yl)amino)phenyl)acetamide], for which the IC50 stood at 168 nM in experiment [1], 7.2 nM in experiment [2] and 5.2 nM in experiment [3].
The like results for `CC(=O)Nc1cc(Nc2ncc(C(F)(F)F)c(-c3c[nH]c4c(F)cccc34)n2)ccc1OCCN(C)C` [Compound 343, N-(2-(2-(dimethylamino)ethoxy)-5-((4-(7-fluoro-1H-indol-3-yl)-5-(trifluoromethyl)pyrimidin-2-yl)amino)phenyl)acetamide] were, in that order, 77.3 nM, 4.3 nM and 2.6 nM.
The like results for `CC(=O)Nc1cc(Nc2ncc(C(F)(F)F)c(-c3c[nH]c4c(F)cccc34)n2)ccc1N1CC[C@@H](N(C)C)C1` [Compound R-344, (R)—N-(2-(3-(dimethylamino)pyrrolidin-1-yl)-5-((4-(7-fluoro-1H-indol-3-yl)-5-(tri-fluoromethyl)pyrimidin-2-yl)amino)phenyl)acetamide] were, in that order, 205 nM, 7.4 nM and 5.4 nM.
The like results for `CCC(=O)Nc1cccc(Nc2ncc(C(F)(F)F)c(Nc3ccc(N4CCN(C(C)=O)CC4)cc3OC)n2)c1` [Compound 169, N-(3-((4-((4-(4-acetylpiperazin-1-yl)-2-methoxyphenyl)amino)-5-(trifluoromethyl)pyrimidin-2-yl)amino)phenyl)propionamide] were, in that order, 285 nM, 43.8 nM and 25.9 nM.
As for `CN(C)CCN(C)c1ccc(Nc2ncc(C(F)(F)F)c(-c3c[nH]c4c(F)cccc34)n2)cc1N` [Compound 335, N^1-(2-(dimethylamino)ethyl)-N^1-methyl-N^4-(4-(7-fluoro-1H-indol-3-yl)-5-(trifluoromethyl)pyrimidin-2-yl)benzene-1,2,4-triamine], the results for the IC50 in experiment [1], in experiment [2] and in experiment [3] were 75.4 nM, 6.1 nM and 3.1 nM, respectively.
The corresponding values for `CCC(=O)Nc1cccc(Nc2ncc(Cl)c(Nc3ccc(C4CCCN(C)C4)cc3OC)n2)c1` (stereo not drawn) [Compound 166, N-(3-((5-chloro-4-((2-methoxy-4-(1-methylpiperidin-3-yl)phenyl)amino)pyrimidin-2-yl)amino)phenyl)propionamide] are 691 nM, 39.5 nM and 96.8 nM.
Regarding `COc1cccc2c(-c3nc(Nc4ccc(N5CC[C@H](N(C)C)C5)c(N)c4)ncc3C(F)(F)F)c[nH]c12` [Compound S-383, (S)-4-(3-(dimethylamino)pyrrolidin-1-yl)-N^1-(4-(7-methoxy-1-1H-indol-3-yl)-5-(trifluoromethyl)pyrimidin-2-yl)benzene-1,3-diamine], the values for the IC50 in experiment [1], in experiment [2] and in experiment [3] were 118 nM, 9.5 nM and 4.6 nM, respectively.
As for `COc1cccc2c(-c3nc(Nc4ccc(N5CC[C@@H](N(C)C)C5)c(NC(C)=O)c4)ncc3C(F)(F)F)c[nH]c12` [Compound R-382, (R)—N-(2-(3-(dimethylamino)pyrrolidin-1-yl)-5-((4-(7-methoxy-1H-indol-3-yl)-5-(trifluoromethyl)pyrimidin-2-yl)amino)phenyl)acetamide], the IC50 in experiment [1] was found to be 128 nM; in experiment [2] it was 9.2 nM; in experiment [3] it was 6.3 nM.
With `CCN(CCN(C)C)c1ccc(Nc2ncc(C(F)(F)F)c(-c3c[nH]c4cccc(F)c34)n2)cc1N` [Compound 319, N^1-(2-(dimethylamino)ethyl)-N^1-ethyl-N^4-(4-(4-fluoro-1H-indol-3-yl)-5-(trifluoromethyl)pyrimidin-2-yl)benzene-1,2,4-triamine], the IC50 in experiment [1] worked out at 772 nM; in experiment [2], 19.1 nM; in experiment [3], 29.7 nM.

As usually defined, the IC50 is the midpoint of a concentration-inhibition curve.
